For test [1], the system named is AMPK. The test can be described thus: Western blotting of AMPK phosphorylation in HUVECs (Example 2). It counts as cell-based, human. As for the experimental part: (§1) Human umbilical vein endothelial cells (HUVECs) were cultured in endothelial growth medium (EGM, Lonza, Walkersville, Md.). Normal human dermal fibroblasts (NHDFs) were cultured in fibroblast basal medium (ATCC, Rockville, Md.). Cells were grown at 37° C. in a humidified atmosphere of 95% air, 5% CO2. Experiments were performed on cells below passage 3 to 6 grown to 80%-90% confluence.
(§2) Protein extraction and Western blotting were carried out as described previously (Morizane et al. JBC (26)). We conducted a densitometric analysis of bands using ImageJ software. Lane-loading differences were normalized by β-actin.

The subject of test [2] is c-Abl. Nature of the test: Western blotting of VEGF induced c-Abl phosphorylation in HUVECs. The format is cell-based, human. The conditions noted are these: AICAR 2 mM 2 h. The protocol: as §1, §2
(§3) Cells were transfected with siRNAs using a Nucleofection kit (Amaxa Biosystems, Gaithersburg, Md.), following the manufacturer's protocol. The medium was changed 6 h after transfection. The down-regulation of each protein was evaluated 3 days after nucleofection.

Test [3] deals with c-Abl. The test can be described thus: Western blotting of H2O2 induced c-Abl phosphorylation in HUVEC. The format is cell-based, human. The conditions noted are these: AICAR 2 mM 2 h. As for the experimental part:
(§4) HUVECs (Lonza, Walkersville, Md.) were cultured in Endothelial Growth Medium (EGM, Lonza, Walkersville, Md.). For all experiments, cells were grown at 37° C. in a humidified atmosphere of 5% CO2 and 95% air. Experiments were performed on cells below passage 3 to 6 grown to 80-90% confluence.
(§5) Protein extraction and western blotting were carried out as described previously (Morizane et al. JBC). Densitometric analysis of bands was performed using ImageJ software. Lane-loading differences were normalized by β-actin.
Cells were transfected with siRNAs using Nucleofection kit (Amaxa Biosysteins, Gaithersburg, Md.), following the manufacturer's protocol. The medium was changed at 6 h after transfection. The down-regulation of each protein was evaluated at 3 days after nucleofection.

The subject of test [4] is AMPK. Nature of the test: Western blotting of AMPK phosphorylation in HUVEC (Example 1). It counts as cell-based, human. The conditions noted are these: each concentration of AICAR for 2 h, FIG. 2A. As for the experimental part: as §4, §5
(In general: In western blotting, separated proteins are transferred to a membrane and probed.)

The test system of test [5] is retinoblastoma xenografts. The conditions noted are these: AICAR-treated retinoblastoma xenografts; cited from earlier work.
The subject of test [6] is prdx1/c-Abl complex. Nature of the test: Co-immunoprecipitation of prdx1 and c-Abl under VEGF. The format is cell-based, human. The conditions noted are these: AICAR 2 mM 2 h, VEGF 12.5 ng/mL 10 min. The protocol:
(§6) Immunoprecipitation was performed with the Universal Magnetic Co-IP Kit (Active Motif North America, Carlsbad, Calif.) according to the manufacturer's instruction.
as §3

Test [7] concerns HUVEC monolayer. The test can be described thus: In vitro vascular permeability assay (Alexa 555-BSA leakage). The format is cell-based, human. The conditions noted are these: AICAR 2 mM 2 h, VEGF 12.5 ng/mL 10 min; FIG. 10A. As for the experimental part:
We conducted the in vitro vascular permeability assay using Alexa Flour 555-labeled bovine serum albumin (BSA) (Invitrogen) and an In Vitro Vascular Permeability Assay kit (Millipore). According to the manufacturer's instructions, HUVECs were seeded at a density of 1×10^5 on a collagen-coated polystyrene filter. After a confluent monolayer was formed, each chamber was treated with AICAR or stimulated with VEGF. To measure endothelial permeability, 100 μL of Alexa Flour 555-BSA solution (0.050 mg/mL) was added into the insert and incubated for 10 min, and then the insert was removed and 100 μL medium was collected from the bottom chamber.
The fluorescent density of samples was analyzed on a SPECTRAmax GEMINI XS Microplate Spectrofluorometer (Molecular Devices, Sunnyvale, Calif.) at excitation and emission wavelengths of 555 nm and 565 nm, respectively.

Test [8] relates to VEGFR2/caveolin-1. Nature of the test: Immunoprecipitation of VEGFR2 with caveolin-1 under VEGF. It counts as cell-based, human. The conditions noted are these: AICAR 2 mM 2 h, VEGF 12.5 ng/mL 10 min; FIG. 8F,G. The protocol: as §6
Test [9] deals with HUVEC. The test can be described thus: Albumin endocytosis assay under H2O2 (Alexa555-BSA, confocal). The conditions noted are these: AICAR 2 mM 2 h, then H2O2 2 mM 30 min, FIG. 1D. It counts as cell-based, human. The protocol:
After serum starvation for overnight, HUVECs were pretreated with AICAR (2 mM) for 2 h, and then stimulated with H2O2 (2 mM) for 30 min. We added BSA conjugated with Alexa 555 (50 μg/ml, Life Technologies, Gaithersburg, Md.) in the medium during the experiment. Cells on coverslips were washed three times with cold TBS and fixed in 100% methanol at −20° C. for 15 min. Cells were then permeabilized in 0.3% Triton X-100, 0.15% BSA in TBS with 0.05% Tween 20 (TBST) for 15 min at room temperature and blocked with 0.5% skim milk in TBST for 60 min at room temperature. Cells were incubated in p-caveolin-1 antibody diluted 1:200 and VE-cadherin antibody diluted 1:400 for overnight at 4° C., and then incubated for 2 h in secondary antibody diluted 1:300. Cells were then rinsed three times in TBST before mounting in Toto3 (Life Technologies, Gaithersburg, Md.). Images were acquired with confocal microscope, Leica TCS SP2 spectral confocal laser scanning microscope (Leica Microsystems, Wetzlar, Germany).

Test [10] relates to HUVECs cocultured with NHDFs. Nature of the test: In vitro angiogenesis (tube formation) assay. The format is cell-based, human. The conditions noted are these: AICAR 0.25, 0.5, 1.0, 2.0 mM; VEGF 12.5 ng/mL; FIG. 8A,B. As for the experimental part: To evaluate the effects of AICAR on angiogenesis, HUVECs were cocultured with NHDFs in a 24-well plate with or without VEGF and AICAR. NHDF cells were seeded at 1.0×10^5 cells/well and then cultured for 2 wks to form a fibroblast cell sheet. […] Suramin (50 μM) was used as the inhibitor of VEGF. At 3, 7 and 10 days after treatment, cells were fixed at −20° C. in ethanol and acetone (1:1). Subsequently, cells were blocked with 1% bovine serum albumin (BSA) in phosphate-buffered saline for 30 min at room temperature, and then incubated with primary rabbit anti-human CD31 antibody overnight at 4° C. After the cells were washed with Tris-buffered saline (TBS), Alexa Flour 488 goat anti-rabbit IgG was applied for 2 h at room temperature. The tube length was quantified using a Kurabo Angiogenesis Image Analyzer (imaging software; Kurabo, Osaka, Japan).

The subject of test [11] is Akt. The test can be described thus: Western blotting of Akt phosphorylation in HUVECs (VEGF). It counts as cell-based, human. As for the experimental part:
as §1, §2, §3

The source of these data is patent US20190201430A1, “TREATING OCULAR NEOVASCULARIZATION” (Massachusetts Eye and Ear Infirmary, priority 2014, published 2019).

Regarding `NC(=O)c1ncn([C@@H]2O[C@H](CO)[C@@H](O)[C@H]2O)c1N` [AICAR, 5-Aminoimidazole-4-carboxamide riboside], the “AMPK phosphorylation on AICAR treatment (time course)” value in test [1] (AICAR 2 mM, presence or absence of VEGF, FIG. 9A,B) is “resulted in AMPK and PTEN phosphorylation”. Further, the “AMPK phosphorylation on AICAR administration” value in [1] (each concentration of AICAR for 2 h, FIG. 12A) is recorded as “dose dependent AMPK phosphorylation”. The “VEGF induced phosphorylation of c-Abl” value in [2] (VEGF 12.5 ng/mL 0 to 60 min, FIG. 11A,B) is reported as “significantly suppressed”. Further, the “inhibitory effect of AICAR on VEGF-induced c-Abl phosphorylation after knockdown of either AMPKα isoform” value in test [2] (AMPKα1 or α2 siRNA, VEGF 12.5 ng/mL 10 min, FIG. 13) was “abolished”. Further, the “inhibitory effect of AICAR on VEGF-induced c-Abl phosphorylation in cells lacking prdx1” value in test [2] (prdx1 siRNA, VEGF 12.5 ng/mL 10 min, FIG. 15A,B) was “abolished”. Moreover, the “inhibitory effect of AICAR on H2O2 induced c-Abl phosphorylation after knockdown of either AMPKα isoform” value in test [3] (AMPKα1 or α2 siRNA HUVEC, H2O2 2 mM 30 min, FIG. 3) is “abolished”. Further, the “H2O2 induced phosphorylation of c-Abl” value in test [3] (HUVEC, then H2O2 0.5-2.0 mM 30 min, FIG. 1A,C) is reported as “significantly suppressed”. Moreover, the “inhibitory effect of AICAR on H2O2 induced c-Abl phosphorylation in cells lacking prdx1” value in [3] (prdx1 siRNA HUVEC, H2O2 2 mM 30 min, FIG. 6A,C) is reported as “abolished”. For the same molecule, in [4], the “AMPK phosphorylation after AICAR administration” value is given as “phosphorylated AMPK dose-dependently”. For the same molecule, the tumor vessel formation result in test [5] was “decrease in tumor vessel formation”. Also, the “VEGF induced dissociation between prdx1 and c-Abl” value in test [6] (FIG. 15D) is reported as “inhibited”. Moreover, the “ability of AICAR to inhibit VEGF induced prdx1/c-Abl dissociation after knockdown of AMPKα1 or α2” value in test [6] (AMPKα1 or α2 siRNA, FIG. 15F,G) is recorded as “decreased”. Further, the VEGF-induced albumin leakage result in test [7] was “significantly suppressed”. The “VEGFR2 dissociation from caveolin-1 upon VEGF stimulation” value in test [8] is listed as “no effect”. In [9], the “H2O2 induced albumin endocytosis” value is “suppressed” and the “caveolin-1 phosphorylation (immunofluorescence) in albumin endocytosis assay” value is reported as “suppressed”. In test [10], the “VEGF-induced vascular tube formation (tube length)” value is “dose-dependent inhibition”. The “VEGF induced Akt phosphorylation” value in [11] (AICAR 2 mM 2 h, VEGF 12.5 ng/mL 0 to 60 min, FIG. 8C,E) was “significantly suppressed and delayed”. For the same molecule, in [11] (AICAR 2 mM, presence or absence of VEGF, FIG. 9A,C), the “Akt phosphorylation state on AICAR treatment (time course)” value is “Akt dephosphorylation”. In test [11] (AMPKα1 or α2 siRNA, AICAR 2 mM 2 h, VEGF 12.5 ng/mL 10 min, FIG. 13), the “inhibitory effect of AICAR on VEGF-induced Akt phosphorylation after knockdown of either AMPKα isoform” value is “abolished”. Besides, the “effects of AICAR on Akt dephosphorylation after PTEN knockdown” value in test [11] (PTEN siRNA, AICAR 2 mM 2 h, VEGF 12.5 ng/mL 10 min, FIG. 9E,F) is on record as “abrogated”.
